Values joined by “and” are separate entries in the source; they are usually repeats but may differ in a detail not shown here. Identical values can stand only once. Like-named read-outs stand apart in the source and are kept apart here.
How the values were obtained:
CD45RA− memory T cells [1] = assay: Phenotypic characterization of CD45RA− memory T cells in the presence of IL-15 (Table 11); type: cell-based, human
CD45RA− memory T cells [2] = tested on: CD45RA− memory T cells;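 note: memory T cells from a convalescent donor cultured overnight or 72 h, surface markers read by flow cytometry, fold change versus a parallel culture lacking IL15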
Protocol: CD45RA− memory T cells from the convalescent donor where thawed and incubated in Tex MACs media TexMACS Medium (Miltenyi Biotec, Germany) supplemented with 5% AB serum (Sigma-Aldrich, Saint Louis, Missouri, USA) plus 50 ng/ml of IL15 o/n and for 72 hours. After that time the cells were harvested and the phenotypic assay was performed. The same culture without IL15 was run in parallel as a control.
Cell surface staining was performed for 20 minutes at 4 degrees with the following fluorochrome conjugated antibodies titrated to their optimal concentrations: 7AAD (BD Horizon), CD45RA FITC (BD Pharmingen), CD3 viogreen (Miltenyi Biotec), CD4 PECy7 (BD Pharmingen), CD8 APC Cy7 (BD Pharmingen), CD27 APC (BD Pharmingen). For the Treg panel CD25 BV421 (BD Horizon), and CD127 PE-CF594 (BD Horizon), was used. For the activation panel HLA-DR BV 421 (BD Pharmingen), CD69 BV421 (Biolegend), CD25 BV421 (BD Horizon), was used. For the exhaustion panel PD1 AF700 (Biolegend), NKG2D BV421 (Biolegend) was used. For the cytokine panel CD103 BV421 (BD Horizon) and CCR7 PE-CF594 (BD Horizon) was used. An average of 200.000 cells was acquired. Cell acquisition was performed using a FACS Canto. The analysis was performed using FlowJo 9.9.6 (FlowJo LLC).

[3] = IL-15 o/n vs control with no cytokine
[4] = IL15 (3 days) 50 ng/ml vs no cytokine
[5] = IL15 (3 days) 50 ng/ml vs no cytokine, listed as IL-15
[6] = IL15 (o.n.) 50 ng/ml vs no cytokine

IL15: cytokine fundamental for memory T cells that induces the activation, the proliferation and the survival of T cells
Fold increase of activation marker HLA-DR, CD45RA− CD3+ cells (CD45RA− memory T cells [1]; IL-15 72 hours vs control with no cytokine): 1.21 fold | Fold time change of exhaustion marker NKG2A, CD45RA−CD3+ cells (CD45RA− memory T cells [1]; IL-15 o/n): 0.61 fold | Fold time change of exhaustion marker PD-1, CD45RA−CD3+ cells (CD45RA− memory T cells [1]; IL-15 o/n): 1.43 fold | Fold increase of activation marker CD25, CD45RA− CD3+ cells (CD45RA− memory T cells [1]; [3]): 2.28 fold | Fold increase of activation marker CD69, CD45RA− CD3+ cells (CD45RA− memory T cells [1]; [3]): 3.82 fold | Fold increase of activation marker HLA-DR, CD45RA− CD3+ cells (CD45RA− memory T cells [1]; [3]): 1.11 fold | Fold change increase, % CD45RA− (CD45RA− memory T cells [2]; [4]): 1.0 fold | Fold change increase, CD3+ CCR7 (CD45RA− memory T cells [2]; [4]): 1 fold and 1.0 fold | Fold change increase, CD3+ CD25+ (CD45RA− memory T cells [2]; [4]): 8.5 fold | Fold change increase, CD3+ CD69 BV421 high (CD45RA− memory T cells [2]; [4]): 29.6 fold | Fold change increase, CD3+ CD103 (CD45RA− memory T cells [2]; [4]): 1.2 fold | Fold change increase, CD3+ HLA-DR+ (CD45RA− memory T cells [2]; [4]): 2.6 fold | Fold change increase, CD3+ NKG2A+ (CD45RA− memory T cells [2]; [4]): 1.4 fold | Fold change increase, CD3+ PD1 AF700 (CD45RA− memory T cells [2]; [4]): 8.7 fold | Fold change increase, CD4+ CCR7 (CD45RA− memory T cells [2]; [4]): 1.0 fold | Fold change increase, CD4+ CD25+ (CD45RA− memory T cells [2]; [4]): 8.6 fold | Fold change increase, CD4+ CD69 BV421 high (CD45RA− memory T cells [2]; [4]): 59.8 fold | Fold change increase, CD4+ CD103 (CD45RA− memory T cells [2]; [4]): 1.0 fold | Fold change increase, CD4+ HLA-DR+ (CD45RA− memory T cells [2]; [4]): 2.4 fold | Fold change increase, CD4+ NKG2A+ (CD45RA− memory T cells [2]; [4]): 0.6 fold | Fold change increase, CD4+ PD1 AF700 (CD45RA− memory T cells [2]; [4]): 9.1 fold | Fold change increase, CD8+ CCR7 (CD45RA− memory T cells [2]; [4]): 1.4 fold | Fold change increase, CD8+ CD25+ (CD45RA− memory T cells [2]; [4]): 36.4 fold | Fold change increase, CD8+ CD69 BV421 high (CD45RA− memory T cells [2]; [4]): 5.6 fold | Fold change increase, CD8+ CD103 (CD45RA− memory T cells [2]; [4]): 1.4 fold | Fold change increase, CD8+ HLA-DR+ (CD45RA− memory T cells [2]; [4]): 1.9 fold | Fold change increase, CD8+ NKG2A+ (CD45RA− memory T cells [2]; [4]): 1.2 fold | Fold change increase, CD8+ PD1 AF700 (CD45RA− memory T cells [2]; [4]): 6.1 fold | Fold change increase, CD45RA− % CD3+ (CD45RA− memory T cells [2]; [4]): 1.0 fold | Fold change increase, CD45RA− % CD4+ (CD45RA− memory T cells [2]; [4]): 1.0 fold | Fold change increase, CD45RA− % CD8+ (CD45RA− memory T cells [2]; [4]): 1.1 fold | Fold change increase, CD45RA− CD4+ CD27+ (CM) (CD45RA− memory T cells [2]; [4]): 1.0 fold | Fold change increase, CD45RA− CD4+ CD27− (EM) (CD45RA− memory T cells [2]; [4]): 0.9 fold | Fold change increase, CD45RA− CD4+ CD127lowCD25+ (Treg) (CD45RA− memory T cells [2]; [4]): 2.0 fold | Fold change increase, CD45RA− CD8+ CD27+ (CM) (CD45RA− memory T cells [2]; [4]): 1.0 fold | Fold change increase, CD45RA− CD8+ CD27− (EM) (CD45RA− memory T cells [2]; [4]): 1.0 fold | Fold change increase, CD3+ CCR7 (CD45RA− memory T cells [2]; [5]): No modification | Fold change increase, CD3+ CD25+ (CD45RA− memory T cells [2]; [5]): 8.6 fold | Fold change increase, % CD45RA− (CD45RA− memory T cells [2]; [6]): 1.0 fold | Fold change increase, CD3+ CCR7 (CD45RA− memory T cells [2]; [6]): 1.0 fold | Fold change increase, CD3+ CD25+ (CD45RA− memory T cells [2]; [6]): 1.5 fold | Fold change increase, CD3+ CD69 BV421 high (CD45RA− memory T cells [2]; [6]): 3.2 fold | Fold change increase, CD3+ CD103 (CD45RA− memory T cells [2]; [6]): 0.7 fold | Fold change increase, CD3+ HLA-DR+ (CD45RA− memory T cells [2]; [6]): 1.2 fold | Fold change increase, CD3+ NKG2A+ (CD45RA− memory T cells [2]; [6]): 0.7 fold | Fold change increase, CD3+ PD1 AF700 (CD45RA− memory T cells [2]; [6]): 0.7 fold | Fold change increase, CD4+ CCR7 (CD45RA− memory T cells [2]; [6]): 1.0 fold | Fold change increase, CD4+ CD25+ (CD45RA− memory T cells [2]; [6]): 1.5 fold | Fold change increase, CD4+ CD69 BV421 high (CD45RA− memory T cells [2]; [6]): 2.9 fold | Fold change increase, CD4+ CD103 (CD45RA− memory T cells [2]; [6]): 0.7 fold | Fold change increase, CD4+ HLA-DR+ (CD45RA− memory T cells [2]; [6]): 1.2 fold | Fold change increase, CD4+ NKG2A+ (CD45RA− memory T cells [2]; [6]): 1.2 fold | Fold change increase, CD4+ PD1 AF700 (CD45RA− memory T cells [2]; [6]): 0.8 fold | Fold change increase, CD8+ CCR7 (CD45RA− memory T cells [2]; [6]): 1.5 fold | Fold change increase, CD8+ CD25+ (CD45RA− memory T cells [2]; [6]): 4.4 fold | Fold change increase, CD8+ CD69 BV421 high (CD45RA− memory T cells [2]; [6]): 2.8 fold | Fold change increase, CD8+ CD103 (CD45RA− memory T cells [2]; [6]): 0.9 fold | Fold change increase, CD8+ HLA-DR+ (CD45RA− memory T cells [2]; [6]): 1.2 fold | Fold change increase, CD8+ NKG2A+ (CD45RA− memory T cells [2]; [6]): 0.8 fold | Fold change increase, CD8+ PD1 AF700 (CD45RA− memory T cells [2]; [6]): 1.7 fold | Fold change increase, CD45RA− % CD3+ (CD45RA− memory T cells [2]; [6]): 1.0 fold | Fold change increase, CD45RA− % CD4+ (CD45RA− memory T cells [2]; [6]): 1.0 fold | Fold change increase, CD45RA− % CD8+ (CD45RA− memory T cells [2]; [6]): 0.8 fold | Fold change increase, CD45RA− CD4+ CD27+ (CM) (CD45RA− memory T cells [2]; [6]): 1.0 fold | Fold change increase, CD45RA− CD4+ CD27− (EM) (CD45RA− memory T cells [2]; [6]): 0.9 fold | Fold change increase, CD45RA− CD4+ CD127lowCD25+ (Treg) (CD45RA− memory T cells [2]; [6]): 1.3 fold | Fold change increase, CD45RA− CD8+ CD27+ (CM) (CD45RA− memory T cells [2]; [6]): 1.1 fold | Fold change increase, CD45RA− CD8+ CD27− (EM) (CD45RA− memory T cells [2]; [6]): 0.9 fold | Fold change increase, CD3+ CCR7 (CD45RA− memory T cells [2]; IL15 (o.n.) 50 ng/ml vs no cytokine, listed as IL-15): No modification

— patent publication US20230372481A1 (priority 2020, published 2023)
